Assay results as given in PubChem BioAssay AID1963846 (Molecular Pharmacology Branch, DTP, NCI, 2024).

System: 454973-116-R2-J3-PDC complex spheroid viability
Assay: Anticancer human tumor 454973-116-R2-J3-PDC patient-derived pancreatic carcinoma cell line growth inhibition [POLQ]
Conditions: for IC50: curve of first compound; for viability, T/C: stronger effect = lower value; active = viability on the fitted dose curve at most 10% of control; inactive = the rest
Description: Multicellular complex tumor spheroid response to Polymerase (POL) inhibitors (novobiocin, ART-558, RP6685) in combination with a variety of drugs and investigational agents in selected tumor cell lines
The POL inhibitors (novobiocin, ART-558, and RP6685) were evaluated both individually and in combination with standard of care and investigational anticancer small molecules within a complex spheroid model of solid tumors. . Complex spheroids include a stromal component modeled by human endothelial cells (HUVEC) and fibroblasts modeled by human mesenchymal stem cells (MSCs). The concentration ranges selected for each drug and investigational agent were based upon clinically achievable concentrations if the clinical Cmax of the agent was known.
Compounds. The drugs and investigational agents: novobiocin (NSC847541), ART-558 (NSC835418), RP-6685 (NSC848927), peposertib (NSC802822), ceralasertib (NSC780249), elimusertib (NSC800525), camonsertib (NSC841442), AZD-1390 (NSC803789), olaparib (NSC753686), talazoparib (NSC767125), rucaparib (NSC756644), sotorasib (NSC818433), MRTX-1133 (NSC836407), SN-38 (NSC673596), topotecan (NSC609699), epotoside (NSC141540), doxorubicin (NSC123127), gemcitabine (NSC613327), 5-fluorouracil (NSC19893), paclitaxel (NSC125973), vemurafenib (NSC761431), MSA-2 (NSC828583), SN-011 (NSC837082), adavosertib (NSC754352), prexasertib (NSC758257), carboplatin (NSC241240) and oxaliplatin (NSC266046), were obtained from the National Cancer Institute (NCI) Developmental Therapeutics Program Chemical Repository (21). The FDA-approved anticancer drug set is available from the Developmental Therapeutics Program at https://dtp.cancer.gov/organization/dscb/obtaining/. […] The stock solutions were prepared in dimethyl sulfoxide (DMSO, Sigma-Aldrich, St. Louis, MO, cat. D2650), except for the platinum compounds which were prepared in saline (Quality Biological, Gaithersburg, MD, cat. 114-055-101), at 800-fold the tested concentration and stored at -70 degrees C prior to their use. All drugs and investigational agents were tested over a range starting from a high concentration at or near the clinical Cmax and decreasing in half-log increments. If the clinical Cmax for an agent had not been determined, the highest concentration tested was 10 microM, except for SN-38, which was tested at a high concentration of 1 microM.
Cell Culture. All cells were maintained in an incubator at 37 degrees C and 5% CO2 with 95% humidity. The PDC lines were cultured according to standard operating procedures established by the NCI PDMR (https://pdmr.cancer.gov). Table 3 of the manuscript, lists the cell lines along with the number of the three cell types plated to form the mct-spheroids and media for tumor cell growth. After thawing, all PDC lines, except 997537-175-T-J1-PDC and 415267-285-R-J2-PDC, were cultured in Matrigel-coated flasks prepared with a working solution of 1X Ham's F-12 nutrient mix, without supplementation (Thermo Fisher Scientific, cat. 11765054), 100 U/mL penicillin-streptomycin (Thermo Fisher Scientific, cat. 15140122), and 2.5% Matrigel (Corning Inc., Corning, NY, cat. 354248) for the first three passages. The two PDC lines 997537-175-T-J1-PDC and 415267-285-R-J2-PDC were cultured on uncoated flasks. The 857933-349-R-J2-PDC line was cultured in 6C/Colon 1B media containing advanced DMEM/F-12 (Thermo Fisher Scientific, cat. 12634028), 10 mM HEPES (Thermo Fisher Scientific, cat. 15630080), 1X GlutaMAX supplement (Thermo Fisher Scientific, cat. 35050061), 0.1 mg/mL primocin (InvivoGen, San Diego, CA, cat. ant-pm-2), 10% defined fetal bovine serum, heat inactivated (HyClone Laboratories Inc., Logan, UT, cat. SH30070.03HI), 50% L-WRN conditioned media (ATCC, cat. CRL-3276), 1.25 mM N-Acetyl-L-cysteine (Sigma-Aldrich, cat. A9165), 10 mM nicotinamide (Sigma-Aldrich, cat. N0636), 1X B-27 supplement (Thermo Fisher Scientific, cat. 17504044), 1X N-2 supplement (Thermo Fisher Scientific, cat. […]
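Note: spheroids exposed to drugs for seven days before measurement.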
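Throughout, for viability, T/C: percent viability relative to DMSO vehicle control wells taken as 100%.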

O=C(Nc1ccc(O)c(NS(=O)(=O)c2ccc(F)cc2)c1)c1ccc(-c2ccccc2)cc1 + COC1C(OC(N)=O)C(O)C(Oc2ccc3c(O)c(NC(=O)c4ccc(O)c(CC=C(C)C)c4)c(=O)oc3c2C)OC1(C)C
inactive: viability, T/C (second compound 0.0316 µM, first compound 0.0316 µM) 93% | viability, T/C (second compound 0.0316 µM, first compound 0.1 µM) 107% | viability, T/C (second compound 0.0316 µM, first compound 0.316 µM) 98.8% | viability, T/C (second compound 0.0316 µM, first compound 1 µM) 112% | viability, T/C (second compound 0.0316 µM, first compound 3.16 µM) 112% | viability, T/C (second compound 0.0316 µM, first compound 10 µM) 105% | viability, T/C (second compound 0.1 µM, first compound 0.0316 µM) 101% | viability, T/C (second compound 0.1 µM, first compound 0.1 µM) 119% | viability, T/C (second compound 0.1 µM, first compound 0.316 µM) 103% | viability, T/C (second compound 0.1 µM, first compound 1 µM) 124% | viability, T/C (second compound 0.1 µM, first compound 3.16 µM) 106% | viability, T/C (second compound 0.1 µM, first compound 10 µM) 105% | viability, T/C (second compound 0.316 µM, first compound 0.0316 µM) 101% | viability, T/C (second compound 0.316 µM, first compound 0.1 µM) 110% | viability, T/C (second compound 0.316 µM, first compound 0.316 µM) 112% | viability, T/C (second compound 0.316 µM, first compound 1 µM) 116% | viability, T/C (second compound 0.316 µM, first compound 3.16 µM) 113% | viability, T/C (second compound 0.316 µM, first compound 10 µM) 103% | viability, T/C (second compound 1 µM, first compound 0.0316 µM) 109% | viability, T/C (second compound 1 µM, first compound 0.1 µM) 104% | viability, T/C (second compound 1 µM, first compound 0.316 µM) 108% | viability, T/C (second compound 1 µM, first compound 1 µM) 117% | viability, T/C (second compound 1 µM, first compound 3.16 µM) 109% | viability, T/C (second compound 1 µM, first compound 10 µM) 98.4% | viability, T/C (second compound 3.16 µM, first compound 0.0316 µM) 113% | viability, T/C (second compound 3.16 µM, first compound 0.1 µM) 115% | viability, T/C (second compound 3.16 µM, first compound 0.316 µM) 107% | viability, T/C (second compound 3.16 µM, first compound 1 µM) 106% | viability, T/C (second compound 3.16 µM, first compound 3.16 µM) 118% | viability, T/C (second compound 3.16 µM, first compound 10 µM) 94.2% | viability, T/C (second compound 10 µM, first compound 0.0316 µM) 108% | viability, T/C (second compound 10 µM, first compound 0.1 µM) 92.1% | viability, T/C (second compound 10 µM, first compound 0.316 µM) 93.4% | viability, T/C (second compound 10 µM, first compound 1 µM) 104% | viability, T/C (second compound 10 µM, first compound 3.16 µM) 102% | viability, T/C (second compound 10 µM, first compound 10 µM) 85.6%
> 10 µM: IC50 (second compound 0.0316 µM) | IC50 (second compound 0.1 µM) | IC50 (second compound 0.316 µM) | IC50 (second compound 1 µM) | IC50 (second compound 3.16 µM) | IC50 (second compound 10 µM)
